Reference: US12472166B2, “Inhibition of mycobacterial type VII secretion” (priority 2019, dated 2025)

How the values were obtained:
[1] = tested on: M. tuberculosis overexpressing ethA; format: cell-based
[2] = tested on: resistant M. tuberculosis strains; format: cell-based

O=C(CSc1nc(-c2ccccc2)no1)NC1CCCC1 [Compound I-31]
activity in the ethA overexpression strain compared to WT M. tuberculosis [1]: did not show an increased activity

COc1ccc(-c2nsc(SCC(=O)NC3CCCC3)n2)cc1 [Compound I-12]
concentration in presence of which resistant strains were grown [2]: 80 µM | increase compared to the susceptible WT strain [2]: 64 fold | increased susceptibility as compared to the parent WT strain [1]: at least 4 fold

O=C(CSc1nc(-c2ccccc2)no1)NC1CCCC1 [Compound I-28]
activity in the ethA overexpression strain compared to WT M. tuberculosis [1]: increased activity in the ethA overexpression strain
